In US7138361B2, “Herbicidal heterocycles” (E. I. du Pont de Nemours and Company, priority 2000, dated 2006):

Assays:
Assay type in all cases: in vivo
[1] = system: morning glory (Ipomoea hederacea); assay: Test B postemergence; conditions: 13 to 15 days
Text: (§1) Seeds selected from barnyardgrass (Echinochloa crus-galli), Surinam grass (Brachiaria decumbens), cocklebur (Xanthium strumarium), corn (Zea mays), crabgrass (Digitaria sanguinalis), giant foxtail (Setaria faberii), lambsquarters (Chenopodium album), morning glory (Ipomoea hederacea), pigweed (Amaranthus retroflexus), rice (Oryza saliva) and velvetleaf (Abutilon theophrasti) were planted and treated preemergence with test chemicals formulated in a non-phytotoxic solvent mixture which included a surfactant.
(§2) At the same time, plants selected from these crop and weed species and also blackgrass (Alopecurus myosuroides), wheat (Triticum aestivum) and wild oat (Avena fatua) were treated with postemergence applications of test chemicals formulated in the same manner. Plants ranged in height from 2 to 18 cm (1- to 4-leaf stage) for postemergence treatments. Plant species in the flooded paddy test consisted of rice (Oryza saliva), smallflower flatsedge (Cyperus difformis), duck salad (Heteranthera limosa) and barnyardgrass (Echinochloa crus-galli) grown to the 2-leaf stage for testing. Treated plants and controls were maintained in a greenhouse for 13 to 15 days, after which time all species were compared to controls and visually evaluated. Plant response ratings, summarized in Table B, are based on a scale of 0 to 100 where 0 is no effect and 100 is complete control. A dash (-) response means no test result.

[2] = system: velvetleaf (Abutilon theophrasti); assay: Test B postemergence; conditions: 13 to 15 days
Text: as §1, §2

[3] = system: giant foxtail (Setaria faberii); assay: Test B postemergence; conditions: 13 to 15 days
Text: as §1, §2

[4] = system: crabgrass (Digitaria sanguinalis); assay: Test B postemergence; conditions: 13 to 15 days
Text: as §1, §2

[5] = system: Surinam grass (Brachiaria decumbens); assay: Test B postemergence; conditions: 13 to 15 days
Text: as §1, §2

[6] = system: pigweed (Amaranthus retroflexus); assay: Test B postemergence; conditions: 13 to 15 days
Text: as §1, §2

[7] = system: lambsquarters (Chenopodium album); assay: Test B postemergence; conditions: 13 to 15 days
Text: as §1, §2

[8] = system: blackgrass (Alopecurus myosuroides); assay: Test B postemergence; conditions: 13 to 15 days
Text: as §1, §2

corn (Zea mays) [9] = assay: Test B postemergence; conditions: 13 to 15 days
Text: as §1, §2

[10] = system: barnyardgrass (Echinochloa crus-galli); assay: Test B postemergence; conditions: 13 to 15 days
Text: as §1, §2

[11] = system: cocklebur (Xanthium strumarium); assay: Test B postemergence; conditions: 13 to 15 days
Text: as §1, §2

wild oat (Avena fatua) = assay: Test B postemergence; conditions: 13 to 15 days
Text: as §1, §2

[12] = system: wheat (Triticum aestivum); assay: Test B postemergence; conditions: 13 to 15 days
Text: as §1, §2

rice (Oryza saliva) [13] = assay: Test C flooded paddy test; conditions: for Rice plant response rating: Flooded Paddy, scale 0 to 100, 0 no effect, 100 complete control; for Plant response rating, Rice: flooded paddy test, scale 0 to 100 (0 no effect, 100 complete control)
Method in brief: (§3)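 Rice and three paddy weeds were grown to the 2-leaf stage under flooded conditions, then treated and kept in a greenhouse for 12–14 days. Response was rated visually against untreated controls on a 0–100 scale, where 100 is complete control.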

[14] = system: duck salad (Heteranthera limosa); assay: Test C flooded paddy test; conditions: for Ducksalad plant response rating: Flooded Paddy, scale 0 to 100, 0 no effect, 100 complete control; for Plant response rating, Ducksalad: flooded paddy test, scale 0 to 100 (0 no effect, 100 complete control)
Method in brief: as §3

[15] = system: smallflower flatsedge (Cyperus difformis); assay: Test C flooded paddy test; conditions: for Flatsedge plant response rating: Flooded Paddy, scale 0 to 100, 0 no effect, 100 complete control; for Plant response rating, Flatsedge: flooded paddy test, scale 0 to 100 (0 no effect, 100 complete control)
Method in brief: as §3

[16] = system: barnyardgrass (Echinochloa crus-galli); assay: Test C flooded paddy test; conditions: for Barnyardgrass plant response rating: Flooded Paddy, scale 0 to 100, 0 no effect, 100 complete control; for Plant response rating, Barnyardgrass: flooded paddy test, scale 0 to 100 (0 no effect, 100 complete control)
Method in brief: as §3

[17] = system: morning glory (Ipomoea hederacea); assay: Test B preemergence
Text: as §1, §2

rice (Oryza saliva) [18] = assay: Test B preemergence
Text: as §1, §2

[19] = system: velvetleaf (Abutilon theophrasti); assay: Test B preemergence
Text: as §1, §2

[20] = system: giant foxtail (Setaria faberii); assay: Test B preemergence
Text: as §1, §2

[21] = system: crabgrass (Digitaria sanguinalis); assay: Test B preemergence
Text: as §1, §2

[22] = system: Surinam grass (Brachiaria decumbens); assay: Test B preemergence
Text: as §1, §2

[23] = system: pigweed (Amaranthus retroflexus); assay: Test B preemergence
Text: as §1, §2

[24] = system: lambsquarters (Chenopodium album); assay: Test B preemergence
Text: as §1, §2

corn (Zea mays) [25] = assay: Test B preemergence
Text: as §1, §2

[26] = system: barnyardgrass (Echinochloa crus-galli); assay: Test B preemergence
Text: as §1, §2

[27] = system: cocklebur (Xanthium strumarium); assay: Test B preemergence
Text: as §1, §2

[28] = Rate 125 g/ha, scale 0 (no effect) to 100 (complete control)
[29] = Rate 500 g/ha, scale 0 to 100, 0 is no effect, 100 is complete control
[30] = Preemergence, Rate 500 g/ha, scale 0 to 100, 0 no effect, 100 complete control
[31] = preemergence, Rate 125 g/ha, scale of 0 to 100 where 0 is no effect and 100 is complete control, 13 to 15 days

SMILES: CC(C)c1ccn(C2OCN(c3cccc(OC(F)(F)F)c3)C2=O)n1 (stereo not drawn) [Compound 65]
- Plant response rating, Morningglory [1, 28]: 0
- Plant response rating, Morningglory [1, 29]: 0
- Plant response rating, Velvetleaf [2, 28]: 0
- Plant response rating, Velvetleaf [2, 29]: 0
- Plant response rating, Foxtail, Giant [3, 28]: 0
- Plant response rating, Foxtail, Giant [3, 29]: 0
- Plant response rating, Crabgrass [4, 28]: 0
- Plant response rating, Crabgrass [4, 29]: 100
- Plant response rating, Surinam grass [5, 28]: 20
- Plant response rating, Surinam grass [5, 29]: 40
- Plant response rating, Pigweed [6, 28]: 0
- Plant response rating, Pigweed [6, 29]: 0
- Plant response rating, Lambsquarters [7, 28]: 60
- Plant response rating, Lambsquarters [7, 29]: 70
- Plant response rating, Blackgrass [8, 28]: 0
- Plant response rating, Blackgrass [8, 29]: 0
- Plant response rating, Corn (corn (Zea mays) [9]; [28]): 0
- Plant response rating, Corn (corn (Zea mays) [9]; [29]): 0
- Plant response rating, Barnyardgrass [10, 28]: 0
- Plant response rating, Barnyardgrass [10, 29]: 100
- Plant response rating, Cocklebur [11, 28]: 20
- Plant response rating, Cocklebur [11, 29]: 30
- Plant response rating, Wild Oat (wild oat (Avena fatua); [28]): 0
- Plant response rating, Wild Oat (wild oat (Avena fatua); [29]): 0
- Plant response rating, Wheat [12, 28]: 0
- Plant response rating, Wheat [12, 29]: 0
- Rice plant response rating (rice (Oryza saliva) [13]; Rate 250 g/ha): 90
- Rice plant response rating (rice (Oryza saliva) [13]; Rate 500 g/ha): 90
- Plant response rating, Rice (rice (Oryza saliva) [13]; Rate 62 g/ha): 0
- Plant response rating, Rice (rice (Oryza saliva) [13]; Rate 125 g/ha): 40
- Ducksalad plant response rating ([14]; Rate 250 g/ha): 30
- Ducksalad plant response rating ([14]; Rate 500 g/ha): 90
- Plant response rating, Ducksalad ([14]; Rate 62 g/ha): 0
- Plant response rating, Ducksalad ([14]; Rate 125 g/ha): 0
- Flatsedge plant response rating ([15]; Rate 250 g/ha): 100
- Flatsedge plant response rating ([15]; Rate 500 g/ha): 100
- Plant response rating, Flatsedge ([15]; Rate 62 g/ha): 0
- Plant response rating, Flatsedge ([15]; Rate 125 g/ha): 100
- Barnyardgrass plant response rating ([16]; Rate 250 g/ha): 100
- Barnyardgrass plant response rating ([16]; Rate 500 g/ha): 100
- Plant response rating, Barnyardgrass ([16]; Rate 62 g/ha): 40
- Plant response rating, Barnyardgrass ([16]; Rate 125 g/ha): 80
- Plant response rating, Morningglory [17, 30]: 0
- Plant response rating, Morningglory [17, 31]: 0
- Plant response rating, Rice (rice (Oryza saliva) [18]; [30]): 20
- Plant response rating, Rice (rice (Oryza saliva) [18]; [31]): 0
- Plant response rating, Velvetleaf [19, 30]: 20
- Plant response rating, Velvetleaf [19, 31]: 0
- Plant response rating, Foxtail, Giant [20, 30]: 70
- Plant response rating, Foxtail, Giant [20, 31]: 20
- Plant response rating, Crabgrass [21, 30]: 70
- Plant response rating, Crabgrass [21, 31]: 20
- Plant response rating, Surinam grass [22, 30]: 20
- Plant response rating, Surinam grass [22, 31]: 0
- Plant response rating, Pigweed [23, 30]: 100
- Plant response rating, Pigweed [23, 31]: 100
- Plant response rating, Lambsquarters [24, 30]: 100
- Plant response rating, Lambsquarters [24, 31]: 100
- Plant response rating, Corn (corn (Zea mays) [25]; [30]): 0
- Plant response rating, Corn (corn (Zea mays) [25]; [31]): 0
- Plant response rating, Barnyardgrass [26, 30]: 100
- Plant response rating, Barnyardgrass [26, 31]: 90
- Plant response rating, Cocklebur [27, 30]: 20
- Plant response rating, Cocklebur [27, 31]: 0

SMILES: CC(C)(C)c1ccn(C2OCN(c3cccc(OC(F)(F)F)c3)C2=O)n1 (stereo not drawn) [Compound 66]
- Plant response rating, Morningglory [1, 28]: 0
- Plant response rating, Morningglory [1, 29]: 0
- Plant response rating, Velvetleaf [2, 28]: 20
- Plant response rating, Velvetleaf [2, 29]: 20
- Plant response rating, Foxtail, Giant [3, 28]: 0
- Plant response rating, Foxtail, Giant [3, 29]: 60
- Plant response rating, Crabgrass [4, 28]: 30
- Plant response rating, Crabgrass [4, 29]: 100
- Plant response rating, Surinam grass [5, 28]: 0
- Plant response rating, Surinam grass [5, 29]: 30
- Plant response rating, Pigweed [6, 28]: 0
- Plant response rating, Pigweed [6, 29]: 0
- Plant response rating, Lambsquarters [7, 28]: 90
- Plant response rating, Lambsquarters [7, 29]: 90
- Plant response rating, Blackgrass [8, 28]: 0
- Plant response rating, Blackgrass [8, 29]: 0
- Plant response rating, Corn (corn (Zea mays) [9]; [28]): 0
- Plant response rating, Corn (corn (Zea mays) [9]; [29]): 0
- Plant response rating, Barnyardgrass [10, 28]: 100
- Plant response rating, Barnyardgrass [10, 29]: 100
- Plant response rating, Cocklebur [11, 28]: 0
- Plant response rating, Cocklebur [11, 29]: 20
- Plant response rating, Wild Oat (wild oat (Avena fatua); [28]): 0
- Plant response rating, Wild Oat (wild oat (Avena fatua); [29]): 0
- Plant response rating, Wheat [12, 28]: 0
- Plant response rating, Wheat [12, 29]: 0
- Rice plant response rating (rice (Oryza saliva) [13]; Rate 250 g/ha): 50
- Rice plant response rating (rice (Oryza saliva) [13]; Rate 500 g/ha): 100
- Plant response rating, Rice (rice (Oryza saliva) [13]; Rate 62 g/ha): 0
- Plant response rating, Rice (rice (Oryza saliva) [13]; Rate 125 g/ha): 0
- Ducksalad plant response rating ([14]; Rate 250 g/ha): 100
- Ducksalad plant response rating ([14]; Rate 500 g/ha): 100
- Plant response rating, Ducksalad ([14]; Rate 62 g/ha): 30
- Plant response rating, Ducksalad ([14]; Rate 125 g/ha): 90
- Flatsedge plant response rating ([15]; Rate 250 g/ha): 100
- Flatsedge plant response rating ([15]; Rate 500 g/ha): 100
- Plant response rating, Flatsedge ([15]; Rate 62 g/ha): 100
- Plant response rating, Flatsedge ([15]; Rate 125 g/ha): 100
- Barnyardgrass plant response rating ([16]; Rate 250 g/ha): 100
- Barnyardgrass plant response rating ([16]; Rate 500 g/ha): 100
- Plant response rating, Barnyardgrass ([16]; Rate 62 g/ha): 70
- Plant response rating, Barnyardgrass ([16]; Rate 125 g/ha): 100
- Plant response rating, Morningglory [17, 30]: 20
- Plant response rating, Rice (rice (Oryza saliva) [18]; [30]): 20
- Plant response rating, Rice (rice (Oryza saliva) [18]; [31]): 0
- Plant response rating, Velvetleaf [19, 30]: 20
- Plant response rating, Velvetleaf [19, 31]: 0
- Plant response rating, Foxtail, Giant [20, 30]: 40
- Plant response rating, Foxtail, Giant [20, 31]: 20
- Plant response rating, Crabgrass [21, 30]: 40
- Plant response rating, Crabgrass [21, 31]: 0
- Plant response rating, Surinam grass [22, 30]: 20
- Plant response rating, Surinam grass [22, 31]: 20
- Plant response rating, Pigweed [23, 30]: 100
- Plant response rating, Pigweed [23, 31]: 100
- Plant response rating, Lambsquarters [24, 30]: 100
- Plant response rating, Lambsquarters [24, 31]: 100
- Plant response rating, Corn (corn (Zea mays) [25]; [30]): 0
- Plant response rating, Corn (corn (Zea mays) [25]; [31]): 0
- Plant response rating, Barnyardgrass [26, 30]: 100
- Plant response rating, Barnyardgrass [26, 31]: 100
- Plant response rating, Cocklebur [27, 30]: 0
